Measured values: US6620828B2, “Thiazole compounds and pharmaceutical compositions for inhibiting protein kinases and methods for their use” (Agouron Pharmaceuticals, Inc., priority 1999, dated 2003)
Where two headings read alike, the source gives them in different places.

Tested on: human umbilical vein endothelial cells (HUVEC)
Assay: HUVEC proliferation assay
Format: cell-based
Settings: for inhibition at 0.001 µM / inhibition at 0.01 µM / inhibition at 0.05 µM / inhibition at 0.15 µM: Homo sapiens, HUVEC; for inhibition at 0.001 µM: 1 nM; for inhibition at 0.01 µM: 10 nM; for inhibition at 0.05 µM: 50 nM; for inhibition at 0.15 µM / % inhibition @ 150 nM: Table I screening results, 150 nM
Outline: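 Exponentially growing HUVEC were serum-starved 24 h (F12K + 1% FBS), pre-treated 1 h with compound (0.1% DMSO final), then stimulated with 6 ng/ml VEGF. Proliferation was read 72 h later by MTT reduction (A595). IC50 came from seven 0.5-log concentrations in triplicate; screens gave % inhibition relative to VEGF-only and starved wells.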

[1] = table following Table II (untitled), crude combinatorial library
[2] = table following Table II (untitled), crude combinatorial library, read-out: % inhibition @ 10 nM
[3] = crude combinatorial urea library, read-out: Inhibition of HUVEC Proliferation % inhibition @ 10 nM
[4] = crude combinatorial urea library, read-out: Inhibition of HUVEC Proliferation % inhibition @ 50 nM
[5] = Inhibition of HUVEC Proliferation, crude combinatorial urea library, read-out: % inhibition @ 50 nM
[6] = crude combinatorial amide library
[7] = Table II screening results, crude combinatorial amide library
[8] = Table II screening results, crude combinatorial amide library, read-out: % inhibition @ 10 nM
[9] = Inhibition of HUVEC Proliferation, crude combinatorial urea library, read-out: Inhibition @ 50 nM

## COc1cc(Nc2nc(N)c(-c3nc(-c4cc(NC(=O)Cc5cc(F)cc(F)c5)ccc4C)no3)s2)cc(OC)c1OC
[1]
  inhibition at 0.001 µM: 4%
[2]
  inhibition at 0.01 µM: 67%

## COc1cccc(C(=O)Nc2cccc(-c3csc(-c4sc(NC(=O)NCC(C)(C)N)nc4N)n3)c2)c1
[3]
  inhibition at 0.01 µM: 14%
[4]
  inhibition at 0.05 µM: 3%

## COc1cccc(C(=O)Nc2cc(-c3csc(-c4sc(NC(=O)NCC(N)=O)nc4N)n3)c(F)cc2F)c1
[5]
  inhibition at 0.05 µM: 48%

## COc1cc(Nc2nc(N)c(-c3nc(-c4cccc(NC(=O)Cc5cc(C)ccc5C)c4)cs3)s2)cc(OC)c1OC
[6]
  inhibition at 0.15 µM: 12%

## COc1cccc(C(=O)Nc2cc(-c3csc(-c4sc(NC(=O)NCC(C)C)nc4N)n3)c(F)cc2F)c1
[5]
  inhibition at 0.05 µM: 38%

## COc1cc(Nc2nc(N)c(-c3nc(-c4cccc(NC(=O)C5CCCCC5)c4)cs3)s2)cc(OC)c1OC
[6]
  inhibition at 0.15 µM: -24%

## CNC(=O)Nc1nc(N)c(-c2nc(-c3cccc(NC(=O)[C@@H]4C[C@H](C)[C@H](C)[C@@H]4C)c3)cs2)s1
[7]
  inhibition at 0.001 µM: -11%
[8]
  inhibition at 0.01 µM: -21%

## COc1cc(CC(=O)Nc2cccc(-c3csc(-c4sc(Nc5cc(OC)c(OC)c(OC)c5)nc4N)n3)c2)cc(OC)c1OC
[6]
  inhibition at 0.15 µM: 29%

## COc1cccc(C(=O)Nc2cccc(-c3csc(-c4sc(NC(=O)NCCCN5CCCCC5)nc4N)n3)c2)c1
[3]
  inhibition at 0.01 µM: 15%
[4]
  inhibition at 0.05 µM: 49%

## COc1cccc(C(=O)Nc2cc(-c3noc(-c4sc(NC(=O)NC5CCN(Cc6ccccc6)CC5)nc4N)n3)c(F)cc2F)c1
[9]
  inhibition at 0.05 µM: 82%

## COc1cc(Nc2nc(N)c(-c3nc(-c4cccc(NC(=O)[C@@H]5C[C@H]5c5ccccc5)c4)cs3)s2)cc(OC)c1OC
[6]
  inhibition at 0.15 µM: -4%

## COc1cc(Nc2nc(N)c(-c3nc(-c4cc(NC(=O)C5CNC(=O)N5)ccc4C)no3)s2)cc(OC)c1OC (centres unmarked)
[1]
  inhibition at 0.001 µM: -43%
[2]
  inhibition at 0.01 µM: -7%

## CC/C=C(\C)C(=O)Nc1ccc(C)c(-c2noc(-c3sc(Nc4cc(OC)c(OC)c(OC)c4)nc3N)n2)c1
[1]
  inhibition at 0.001 µM: 32%
[2]
  inhibition at 0.01 µM: 74%

## COc1cc(Nc2nc(N)c(-c3nc(-c4cccc(NC(=O)/C=C/c5ccc6c(c5)OCO6)c4)cs3)s2)cc(OC)c1OC
[6]
  % inhibition @ 150 nM: 0%

## CNC(=O)Nc1nc(N)c(-c2nc(-c3cccc(NC(=O)Cc4cn(C)cn4)c3)cs2)s1
[7]
  inhibition at 0.001 µM: 34%
[8]
  inhibition at 0.01 µM: 42%

## COc1cccc(C(=O)Nc2cc(-c3noc(-c4sc(NC(=O)N[C@@H](CO)C(N)=O)nc4N)n3)c(F)cc2F)c1
[9]
  inhibition at 0.05 µM: 59%

## COc1cc(Nc2nc(N)c(-c3nc(-c4cc(NC(=O)C(C)OC=C(C)C)ccc4C)no3)s2)cc(OC)c1OC (centres unmarked)
[1]
  inhibition at 0.001 µM: -21%
[2]
  inhibition at 0.01 µM: 11%

## COc1cc(Nc2nc(N)c(-c3nc(-c4cc(NC(=O)c5cc(C)nn5C)ccc4C)no3)s2)cc(OC)c1OC
[1]
  inhibition at 0.001 µM: -23%
[2]
  inhibition at 0.01 µM: 109%

## COc1cccc(C(=O)Nc2cc(-c3csc(-c4sc(NC(=O)NCCc5c[nH]cn5)nc4N)n3)c(F)cc2F)c1
[5]
  inhibition at 0.05 µM: 55%

## COc1cccc(C(=O)Nc2cc(-c3noc(-c4sc(NC(=O)NCC(C)(C)CN(C)C)nc4N)n3)c(F)cc2F)c1
[9]
  inhibition at 0.05 µM: 77%

## COc1cc(Nc2nc(N)c(-c3nc(-c4cccc(NC(=O)/C=C/c5cccc6ccccc56)c4)cs3)s2)cc(OC)c1OC
[6]
  % inhibition @ 150 nM: 0%

## CNC(=O)Nc1nc(N)c(-c2nc(-c3cccc(NC(=O)c4cc(C)cc(=O)o4)c3)cs2)s1
[7]
  inhibition at 0.001 µM: 5%
[8]
  inhibition at 0.01 µM: 62%

## COc1cccc(C(=O)Nc2cccc(-c3csc(-c4sc(NC(=O)N[C@@H](CO)C(N)=O)nc4N)n3)c2)c1
[3]
  inhibition at 0.01 µM: 5%
[4]
  inhibition at 0.05 µM: 24%

## CNC(=O)Nc1nc(N)c(-c2nc(-c3cccc(NC(=O)CCc4ccc(C)cc4)c3)cs2)s1
[7]
  inhibition at 0.001 µM: 2%

## COc1cccc(C(=O)Nc2cc(-c3csc(-c4sc(NC(=O)NCCCn5ccnc5)nc4N)n3)c(F)cc2F)c1
[5]
  inhibition at 0.05 µM: 6%

## CNC(=O)Nc1nc(N)c(-c2nc(-c3cccc(NC(=O)Cc4sc(S)nc4C)c3)cs2)s1
[7]
  inhibition at 0.001 µM: 18%
[8]
  inhibition at 0.01 µM: -25%

## COc1cc(Nc2nc(N)c(-c3nc(-c4cc(NC(=O)CSC(=S)N(C)C)ccc4C)no3)s2)cc(OC)c1OC
[1]
  inhibition at 0.001 µM: 6%
[2]
  inhibition at 0.01 µM: -7%

## COc1cccc(C(=O)Nc2cccc(-c3csc(-c4sc(NC(=O)NCCNC(C)=O)nc4N)n3)c2)c1
[3]
  inhibition at 0.01 µM: 20%
[4]
  inhibition at 0.05 µM: 77%

## COCC(C)NC(=O)Nc1nc(N)c(-c2nc(-c3cc(NC(=O)c4cccc(OC)c4)c(F)cc3F)no2)s1 (centres unmarked)
[9]
  inhibition at 0.05 µM: 80%

## COc1cc(Nc2nc(N)c(-c3nc(-c4cccc(NC(=O)/C=C/c5ccc(F)cc5)c4)cs3)s2)cc(OC)c1OC
[6]
  % inhibition @ 150 nM: 0%
